Measured values reported in US12391768B2, “Antibodies to ticagrelor and methods of use” (MEDIMMUNE LIMITED, priority 2014, dated 2025).

Key:
TICA0212 Fab = assay: HTRF competition binding selectivity assay, TICA0212 His-Fab; design: species or system human; conditions: Table 7, DMSO normalised; 5 nM biotinylated ticagrelor, 1 nM His Fab; read-out: IC50 (uM) for inhibition of biotinylated ticagrelor binding to TICA0212 Fab
Procedure: (§1) Total Binding control wells were set up which contained all of the assay components above except that 5 ul assay buffer was added in place of the test selectivity compound addition. Negative Binding control wells were set up which contained all of the assay components included in the Total Binding control wells except that 5ul assay buffer was added in place of the His-Fab addition. Test compound serial titrations were either ½ or ⅓ depending on the particular experiment and top final assay compound concentrations were optimized on a compound specific basis. The concentration of biotinylated ticagrelor and His-Fab was optimized on a Fab specific basis in separate experiments. For the four Fabs investigated at the end of the lead isolation phase (TICA0010, TICA0049, TICA0053 and TICA0072) the final assay reagent concentrations used are set out in Table 1 below:
For the two Fabs investigated at the end of the lead optimization phase (TICA0162 and TICA0212) the final assay reagent concentrations used were 5nM biotinylated ticagrelor and 1 nM His Fab in both cases. […] At the end of the set up procedure that assay was incubated for 3hrs at RT before being read on an Envision plate reader using a standard read protocol. […]

mouse tail bleeding = assay: Prophylactic mouse tail bleeding study; type: in vivo, mice
Procedure: (§2) Mice were pre-treated with a continuous infusion of ticagrelor, 300 μg/kg/min or vehicle for 20 minutes. After stop of infusion, t=0, a bolus dose of TICA0212/MEDI2452 (600 mg/kg) or vehicle (histidine sucrose buffer) was given over 45 seconds and at t=30 minutes bleeding was induced by cutting 5mm from the tip of the tail. The tip of the tail was rinsed with water (2 mL/min) and the blood and water mixture was collected in a small chamber, where a stirrer mixed the fluid to enhance haemolysis and establish a homogeneous solution. Light transmission, at 525 nm, was recorded for 30 minutes when terminal blood samples were collected from the abdominal aorta for platelet aggregation. Light transmittance was transformed to absorbance and used to calculate blood loss as area under the absorbance curve (AUC, absorbance*s) and total bleeding time (BT, s) by plotting absorbance over time. All transmittance below 95% was defined as bleeding. Samples for platelet aggregation and total and free plasma exposure were also collected at end of ticagrelor infusion (t=0) and at time of tail cut (t=30 minutes).
Studies were approved by the ethical committee for animal research at the University of Göteborg, Sweden. Mice were anaesthetised with isofluran gas (Forenc®, Abbot Scandinavia AB, Sweden). A catheter was inserted in the left jugular vein for administration of vehicle or drug. The body temperature was maintained at 38° C. by external heating.
To translate the effect of TICA0212/MED12452 on platelet aggregation to a potential effect on bleeding, a prophylactic mouse tail bleeding study was performed. Ticagrelor was infused to a mean total ticagrelor and TAM plasma concentration of 7.6 and 0.3 μM, respectively, to provide a significant drug-dependant bleeding window. Immediately after stopping the ticagrelor infusion TICA0212/MEDI2452 was dosed as a single bolus of 600 mg/kg over 30 seconds. […] Bleeding was initiated by a tail cut and monitored for 30 minutes. In vehicle treated mice the mean total ticagrelor and TAM plasma concentration at time of tail cut were 2.4 and 0.6 μM. […] In this prophylactic setting TICA0212/MED12452 normalized ticagrelor dependent bleeding.

[1] = test system: ADP-induced platelet aggregation in whole blood; assay: Ex vivo whole blood impedance aggregometry after i.v. dosing of ticagrelor treated mice; type: in vivo; conditions: for mean ADP-induced aggregation response: n=4
Procedure: The speed of onset and the extent of TICA0212/MEDI2452 mediated reversal of ticagrelor mediated inhibition of ADP-induced platelet aggregation in whole blood (impedance aggregometry) was determined ex vivo after intravenous (i.v.) dosing of ticagrelor in mice. Mice were given ticagrelor i.v. as a bolus of 1200 μg/kg. over 5 minutes, followed by a 15 min continuous infusion of 30 μg/kg/min. After termination of the ticagrelor infusion, when ticagrelor plasma exposure was measured to be in average 1.4 μM, mice were given an i.v. bolus of 250 mg/kg TICA0212/MEDI2452. At 5, 30, and 60 min post TICA0212/MEDI2452 administration mice were sacrificed and blood samples were collected. In this study the ADP-induced aggregation response was measured for 6 min and data expressed as the mean area under the curve of aggregation unit (AU) recorded over time (AU*min).
In carrying out the impedance aggregometry assay, mice were sacrificed and blood samples were collected into 7 μM hirudin. Blood (175 μL) was added to pre-heated […] (37° C., 175 μL) in the Multiplate mini test cells and mixed for 3 min before addition of ADP, 12 μL, to a final concentration of 6.5 μM. The disposable Multiplate mini test cells contain a stir bar and have two separate pair of electrodes that are immersed into the blood sample.
When agonist (ADP) is added and shear is induced by stirring, platelets will start to adhere and aggregate onto the electrodes.
as §2

TICA0162 Fab = assay: HTRF competition binding selectivity assay, TICA0162 His-Fab; design: species or system human; conditions: Table 7, DMSO normalised; 5 nM biotinylated ticagrelor, 1 nM His Fab; read-out: IC50 (uM) for inhibition of biotinylated ticagrelor binding to TICA0162 Fab
Procedure: as §1
For the two Fabs investigated at the end of the lead optimization phase (TICA0162 and TICA0212) the final assay reagent concentrations used were 5nM biotinylated ticagrelor and 1 nM His Fab in both cases. […] In order to enable subsequent normalization of data to correct for any such vehicle related effects parallel titrations of DMSO alone were included in most experiments in which the final assay DMSO concentrations mirrored those of the test compound serial dilutions. At the end of the set up procedure that assay was incubated for 3hrs at RT before being read on an Envision plate reader using a standard read protocol. […]
In those experiments where DMSO normalization was applied DMSO normalised % Specific Binding was calculated essentially according to the equation above except that in this case Total Binding Delta F was taken from wells containing all of the components in the Total Binding control wells as well as DMSO at a concentration equivalent to that in the relevant sample well.

[2] = ticagrelor versus vehicle, p<0.05
[3] = 5 min after ticagrelor infusion (1200 μg/kg bolus + 30 μg/kg/min) and bolus (PBS or 250 mg/kg Fab i.v.)
[4] = 30 min after ticagrelor infusion (1200 μg/kg bolus + 30 μg/kg/min) and bolus (PBS or 250 mg/kg Fab i.v.)
[5] = 60 min after ticagrelor infusion (1200 μg/kg bolus + 30 μg/kg/min) and bolus (PBS or 250 mg/kg Fab i.v.)
[6] = 600 mg/kg bolus 30 min before tail cut, n=12

Molecule | IC50 (TICA0212 Fab) [µM] | bleeding time over 30 minutes, enhancement (mouse tail bleeding; [2]) [fold] | total blood loss over 30 minutes, enhancement (mouse tail bleeding; [2]) | mean ADP-induced aggregation response [1, 3] [AU*min] | mean ADP-induced aggregation response [1, 4] [AU*min] | mean ADP-induced aggregation response [1, 5] [AU*min] | IC50 (TICA0162 Fab) [µM] | bleeding time relative ticagrelor alone (mouse tail bleeding; [6]) | blood loss relative ticagrelor alone (mouse tail bleeding; [6]) | ADP-induced aggregation ([1]; Example 12, 30 minutes after single bolus of 600 mg/kg, ticagrelor 300 μg/kg/min for 20 min)
CCCSc1nc(N[C@@H]2C[C@H]2c2ccc(F)c(F)c2)c2nnn([C@@H]3C[C@H](OCCO)[C@@H](O)[C@H]3O)c2n1 [Ticagrelor, (1S,2S,3R,5S)-3-[7-{[(1R,2S)-2-(3,4-difluorophenyl)cyclopropyl]amino}-5-(propylthio)-3H-[1,2,3]triazolo[4,5-d]pyrimidin-3-yl]-5-(2-hydroxyethoxy)cyclopentane-1,2-diol] | 0.035 | ~1.6 | about 3.8 fold | 2 | 6 | 14 | 0.023 |  |  | 
TICA0212: combination of TICA0162 and TICA0152; VH SEQ ID NO:72, VL SEQ ID NO:77 (antibody, listed as Homo sapiens, V domains shown) VH: QVQLQESGAEVKKPGSSVRVSCKASGGTFDSYSIHWVRQAPGQGLEWMGGIIPAFGTLSSAQDFQARVTISADKSTSTAYMELSGLRSEDTAVYYCARGSFDYYFWSASHPPNDALAIWGQGTLVTVSS VL: QSVVTQPPSVSAAPGQKVTISCSGSNSDIGNNYVSWYQQLPGTAPKLLIYDNNKRPSGIPDRFSGSKSGTSATLAITGLQAGDEADYYCGTWLYDRAVGLFGGGTKVTVL |  |  |  | 147 | 448 | 413 |  | significantly (p<0.05) reversed | significantly (p<0.05) reversed | fully normalized
